From PMC8297771 (PLoS Pathogens, 2021)

Legend:
[1] = test system: Salmonella typhimurium (TA100, TA1535, TA98, TA1537) and Escherichia coli (WP2uvrA); assay: Bacterial reverse mutation assay (GLP); settings: five bacterial strains
Description: (§1) Bacterial reverse mutation assay (Study no. YL18407). The bacterial reverse mutation assay of STP0404 was performed in two conditions (with or without metabolic activation) for the dose range-finding test (doses of STP0404rangingfrom 2.29 to 5,000μg/plate) and the main test (doses of STP0404 ranging from 19.5 to 5,000 μg/plate) in comparison with negative control (DMSO) and active controls (sodium azide, 2-(2-furyl)-3-(5-nitro-2-furyl) acrylamide, 2-aminoanthracene, 9-aminoacridine hydrochloride). Salmonella typhimurium (TA100, TA1535) and Escherichia coli (WP2uvrA) were used for detection of base-pair substitutions. Salmonella typhimurium (TA98, TA1537) was used for detection of frameshift mutations. Chromosomal Aberration Test of STP0404 in Cultured Mammalian Cells (Study no. YL18408). Presence/absence of genotoxicity of STP0404 was determined using chromosomal aberration test carried out in CHL/IU cells. The test comprised a dose range-finding test and a main test. Micronucleus Study of STP0404 by oral administration in Rats (Study no. YL18409). STP0404 was administered orally to SD rats (3/group in preliminary test and 6/group in the main test) at dose levels of 500, 1000 and 2000 mg/kg/day once daily for 2 days in a two-test study (preliminary test and main test) to investigate the genotoxicity profile of STP0404. […] Bone marrow smear slides were evaluated (INA Research, Japan).

[2] = test system: bone marrow cells; assay: Micronucleus study by oral administration in rats (GLP); type: in vivo, SD rats; settings: 500, 1000 and 2000 mg/kg/day
Description: as §1

[3] = test system: cytochrome P450 enzymes; assay: Cytochrome P450 inhibition assay in human liver microsomes; type: in vitro ADME; settings: 8 different cytochrome P450 enzymes
Description: The final concentrations of test article in incubation system were 0, 0.15, 0.5, 1.5, 5, 15 and 50 μM. The inhibition of CYP1A2, 2B6, 2C8, 2C9, 2C19, 2D6, and 3A4 in human liver microsomes was measured as the percentage decrease in the activity of marker metabolite formation compared to non-inhibited controls (= 100% activity). The rate of formation of isoform-specific metabolites derived from marker substrates were measured by UPLC-MS/MS. The IC50 values were calculated with the metabolites decrease percentages of test samples to vehicle samples. All incubations were performed in triplicate (Pharmaron, China).

[4] = test system: HIV-1_89.6 particles produced from 293 T cells; assay: TEM analysis of HIV-1 particle morphology; type: cell-based; settings: viruses produced from treated 293T cells; 1 μM
Description: 293T cells were transfected with plasmids containing proviral clones encoding WT HIV-1 89.6 using polyethylenimine (PEI). After 6 hrs, cells were rinsed with DPBS gently, and then cells were resuspended in a fresh media with or without the inhibitor (1 μM, final). At 96 hrs post-transfection, cell cultures were centrifuged (1,800 xg) and filtered through 0.45 μm filter to remove cells and any cell debris, and viruses were harvested by centrifugation at 100,000 xg for 1.5 hrs in the presence of TNE sucrose buffer (5% sucrose, final). The pellets were fixed in a buffer containing 0.1 M Na cacodylate at pH 7.4 and 2.5% Glutaraldehyde, and submitted to Emory Integrated Core Facilities for sectioning, followed by TEM. Virus pellets were dehydrated in a graduated ethanol series and embedded in Epon resin. Ultrathin sections were stained using uranyl acetate and observed under a transmission electron microscope (JEOL JEM-1400), equipped with Gatan CCD camera at the Emory Integrated Electron Microscopy Core. Total of approximately 1,000 virions each (with or without the inhibitor treatment) were captured in the images obtained for comparisons in virion morphology.

[5] = test system: HIV-1 GFP vector in pre-treated Jurkat cells; assay: HIV-1 inhibition in infecting cells (early stage); type: cell-based; settings: 60 nM in Jurkat cells; vector from untreated 293T cells
Description: To test for STP0404’s inhibitory effects during the late stage of HIV-1 life cycle such as the maturation step, we employed the “producing cells” setup. In T75 tissue culture flasks, 293T cells were pre-treated with and without STP0404 (0 and 60 nM) for 2 hrs prior to transfection with pD3-HIV (13 μg) and pVSV-g (6 μg), using 0.3 mg/ml polyethylenimine. After 24 hrs incubation at 37°C, the supernatant was removed and replaced with fresh media with and without STP0404 (0 and 60 nM). 48 hrs later, D3-HIV vector from each treatment group was concentrated from the collected supernatant via ultracentrifugation (22,000 rpm for 2 hrs). Following p24 quantification, using 96-well plates, similar amount of respective D3-HIV vector was used to transduce Jurkat cells in triplicates for 48 hrs. The cells were harvested and fixed with 3.7% formaldehyde before being analyzed for GFP expression using FACS (Miltenyi Biotec, VYB). Separately, the “infecting cells” setup was used to investigate the inhibitory effects of STP0404 against the early stages of HIV-1 life cycle such as the integration and transcription steps. […] All data were analyzed using GraphPad Prism (Version 9). Unpaired t tests were performed to determine the significance of the readings in respective experimental set up relative to the untreated controls. […]

[6] = Four-week oral dose toxicology study in dogs (GLP); type: in vivo, beagle dogs; settings: for NOAEL at 4 weeks: both sexes, beagle
Description: STP0404 was administered orally to 10 or 15 SD rats/sex/group at dose levels of 100, 300 and 600 mg/kg/day for 4 weeks to evaluate its potential toxicity. The reversibility of any effects was also assessed following a 2-week untreated recovery period. Control animals (15 animals/sex) received the vehicle, 0.5 w/v% methylcellulose solution, in a similar manner for comparison. In addition, plasma STP0404 concentrations were determined using TK satellite animals (3 animals/sex/group) to evaluate systemic exposure of the animals to the test article. (Study no. YL18402). STP0404 was administered orally as a capsule to 4 or 6 dogs/sex/group at dose levels of 30, 60 and 90 mg/kg/day for 4 weeks to evaluate its potential toxicity. Control animals (6 animals/sex) received empty gelatin capsules in a similar manner for comparison. The reversibility of any effects was also assessed following a 2-week untreated recovery period (2 animals/sex/group for the control and 90 mg/kg/day groups). In addition, plasma STP0404 concentrations were determined using all tested animals (including control group) to evaluate systemic exposure of the animals to the test article (Study no. YL18403). The test was performed according to the Standard Operating Procedures (SOP) the Good Laboratory Practice (GLP) system of the INA Research.

For `Cc1nc2c(c(C)c(C)n2Cc2cnn(C)c2)c(-c2ccc(Cl)cc2)c1[C@H](OC(C)(C)C)C(=O)O` [STP0404], the gene mutation-inducing potential [1] was “lacked”, the “bone marrow cell proliferation inhibitory potential” value [2] was “lacked” and the micronucleus-inducing potential [2] was “lacked”. For the same molecule, the “inhibition of cytochrome P450 enzymes (in words)” value [3] was “low (high μM) or no inhibition (NI)”, the “localization of viral RNA genomes in virus particles (TEM)” value [4] was “viral RNA genomes outside of the capsid” and the “transduction efficiency, infecting cells” value [5] was “no reduction in transduction efficiency”. The “single dose well tolerated up to” value ([6]; beagle dogs, oral) was “up to 500 mg/kg”, the NOAEL at 4 weeks ([6]; dog, in vivo, dogs, 4-week once daily oral dose) was 90 mg/kg and the NOAEL at 4 weeks ([6]; dog, in vivo, male and female dogs, four-week oral) was 90 mg/kg/day. The “histopathology lesions (in words)” value ([6]; dog, in vivo) was “lesions were not observed in any organ”, the “abnormal changes (in words)” value ([6]; dogs, 30 mg/kg, 60 mg/kg and 90 mg/kg, four-week oral) was “no abnormal changes were noted at any dose level” and the “highest non-severely toxic dose (HNSTD)” value ([6]; four-week dog toxicology study, ICH guidance S9) was 90 mg/kg/day.
